According to ChEMBL document CHEMBL1201862, “PubChem BioAssay data set” (2004):
Active and inactive are the calls of the source.

Experiments:
[1] = biological target: T1, Heat shock factor protein 1 (Mus musculus, UniProt P38532); assay: decrease of HSF1-responsive luciferase luminescence – cell-based, NIH3T3, dose retest, confirmation (AID 2382); type: functional;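 note: NIH3T3 fibroblasts with HSF1-driven luciferase reporter stressed by proteasome inhibitor MG132; luminescence from HSF1-driven luciferase expression after 8 hours of MG132 stress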
T1 sequence (P38532 whole entry): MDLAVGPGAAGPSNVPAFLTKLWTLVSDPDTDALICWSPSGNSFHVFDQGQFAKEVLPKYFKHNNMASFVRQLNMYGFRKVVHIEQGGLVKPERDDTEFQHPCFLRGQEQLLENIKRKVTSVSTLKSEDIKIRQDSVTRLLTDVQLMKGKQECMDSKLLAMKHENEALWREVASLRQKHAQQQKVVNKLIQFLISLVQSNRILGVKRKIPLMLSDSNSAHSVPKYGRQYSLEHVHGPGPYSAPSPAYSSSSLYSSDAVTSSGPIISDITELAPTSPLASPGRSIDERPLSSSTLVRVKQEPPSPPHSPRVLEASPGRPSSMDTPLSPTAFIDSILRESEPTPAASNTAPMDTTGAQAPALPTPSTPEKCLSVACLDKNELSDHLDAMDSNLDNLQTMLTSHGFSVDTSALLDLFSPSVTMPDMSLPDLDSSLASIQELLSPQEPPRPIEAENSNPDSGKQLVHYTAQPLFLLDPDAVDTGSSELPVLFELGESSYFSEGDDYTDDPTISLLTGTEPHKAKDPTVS

[2] = biological target: T2, Disintegrin and metalloproteinase domain-containing protein 17 (Homo sapiens, UniProt P78536); assay: inhibition of ADAM17 substrate cleavage – biochemical, quenched FRET substrate, counter-screen for ADAM10 exosite inhibitor project, dose response (AID 743253)
[3] = biological target: COUP transcription factor 2 (Homo sapiens, UniProt P24468); assay: Luminescence-based cell-based high throughput dose response assay to identify inhibitors of COUP-TFII (NR2F2).; type: functional;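 note: HEK293 cells transiently cotransfected with COUP-TFII expression vector and reporter; luciferase reporter luminescence driven by COUP-TFII from the pX2-168 reporter plasmid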
Major prion protein = Major prion protein (Homo sapiens, UniProt P04156); type: functional, cell-based
cells [4] = assay: cells
[5] = biological target: Delta-type opioid receptor (Homo sapiens, UniProt P41143); assay: Late-stage results from the probe development effort to identify antagonists of OPRK1: fluorescence-based cell-based dose response OPRD1 counterscreen, Set 2.; type: functional
Mu-type opioid receptor = Mu-type opioid receptor (Homo sapiens, UniProt P35372); assay: Late-stage results from the probe development effort to identify antagonists of OPRK1: luminescence-based cell-based dose response OPRM1 counterscreen, Set 2.; type: functional
[6] = biological target: Kappa-type opioid receptor (Homo sapiens, UniProt P41145); assay: Late-stage fluorescence-based cell-based dose response assay for antagonists of kappa opioid receptor 1 (OPRK1).; type: functional
[7] = biological target: Sphingosine 1-phosphate receptor 1 (Homo sapiens, UniProt P21453); assay: Late-stage counterscreen for antagonists of kappa opioid receptor 1 (OPRK1): fluorescence-based cell-based dose response assay to identify antagonists of Sphingosine 1-Phosphate Receptor 1 (S1P1).; type: functional
[8] = alpha-synuclein stem-loop luciferase translation blockers – H4 neuroglioma cells, luminescence, confirmation (AID 1988); type: functional, cell-based
[9] = viability loss in HepG2 liver cells – cell-based, ATP luminescence, cherry-pick, set 6, cytotoxicity control, dose response (AID 1053125); type: functional
[10] = luciferase reporter signal suppression in cells – H4 neuroglioma cells, luminescence, dose response (AID 1990); type: functional, cell-based
[11] = Luminescence Cell-Based Dose Response HTS to Identify Inhibitors of 5'UTR Stem-Loop Driven Prion Protein mRNA Translation in H4 Neuroglioblastoma Cells. [Related pubchem assays: 1827 (Project Summary), 1813 (Primary HTS)]; type: functional
[12] = HEK-293T viability loss after treatment – luminescence, T-cell screen hits, cytotoxicity control for TCR NF-kB inhibitor project, dose response (AID 489026); type: functional, cell-based;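 note: cells exposed to compound about 14 hours before the viability readout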
[13] = biological target: SWI/SNF-related matrix-associated actin-dependent regulator of chromatin subfamily A member 2 (Homo sapiens, UniProt P51531); assay: Luminescence-based cell-based high throughput dose response assay to identify activators of the function of SWI/SNF related, matrix associated, actin dependent regulator of chromatin, subfamily a, member 2 (SMARCA2, BRM).; type: functional
[14] = Counterscreen for activators of the function of SWI/SNF related, matrix associated, actin dependent regulator of chromatin, subfamily a, member 2 (SMARCA2, BRM): Luminescence-based cell-based high throughput dose response assay to identify non-selective compounds using the VP16 reporter assay.; type: functional
[15] = biological target: T3, Nuclear receptor subfamily 0 group B member 1 (Homo sapiens, UniProt P51843); type: functional, cell-based;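 note: HEK293T cells transfected with SF-1 and DAX-1 plus StAR promoter luciferase reporter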
T3 sequence (P51843 whole entry): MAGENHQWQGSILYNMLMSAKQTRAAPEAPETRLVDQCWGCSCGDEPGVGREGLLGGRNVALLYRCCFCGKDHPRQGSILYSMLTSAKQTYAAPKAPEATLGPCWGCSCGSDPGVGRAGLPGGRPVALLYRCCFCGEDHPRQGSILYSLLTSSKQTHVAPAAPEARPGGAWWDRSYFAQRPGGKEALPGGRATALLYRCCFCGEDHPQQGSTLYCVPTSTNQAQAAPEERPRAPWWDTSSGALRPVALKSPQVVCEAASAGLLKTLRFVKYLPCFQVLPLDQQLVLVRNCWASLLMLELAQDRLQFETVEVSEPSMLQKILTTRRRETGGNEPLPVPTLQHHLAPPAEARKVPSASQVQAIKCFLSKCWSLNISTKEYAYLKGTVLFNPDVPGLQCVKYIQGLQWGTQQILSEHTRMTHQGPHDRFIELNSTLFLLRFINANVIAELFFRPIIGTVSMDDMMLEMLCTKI

[16] = biological target: T4, Long-chain-fatty-acid--AMP ligase FadD28 (Mycobacterium tuberculosis, UniProt P9WQ59); assay: Fluorescence polarization aasay to screen for inhibitors that compete for the binding of FadD28 to a bisubstrate Measured in Biochemical System Using Plate Reader - 2147-01_Inhibitor_Dose_CherryPick_Activity.; type: functional, Mycobacterium tuberculosis H37Rv
T4 sequence (P9WQ59 whole entry): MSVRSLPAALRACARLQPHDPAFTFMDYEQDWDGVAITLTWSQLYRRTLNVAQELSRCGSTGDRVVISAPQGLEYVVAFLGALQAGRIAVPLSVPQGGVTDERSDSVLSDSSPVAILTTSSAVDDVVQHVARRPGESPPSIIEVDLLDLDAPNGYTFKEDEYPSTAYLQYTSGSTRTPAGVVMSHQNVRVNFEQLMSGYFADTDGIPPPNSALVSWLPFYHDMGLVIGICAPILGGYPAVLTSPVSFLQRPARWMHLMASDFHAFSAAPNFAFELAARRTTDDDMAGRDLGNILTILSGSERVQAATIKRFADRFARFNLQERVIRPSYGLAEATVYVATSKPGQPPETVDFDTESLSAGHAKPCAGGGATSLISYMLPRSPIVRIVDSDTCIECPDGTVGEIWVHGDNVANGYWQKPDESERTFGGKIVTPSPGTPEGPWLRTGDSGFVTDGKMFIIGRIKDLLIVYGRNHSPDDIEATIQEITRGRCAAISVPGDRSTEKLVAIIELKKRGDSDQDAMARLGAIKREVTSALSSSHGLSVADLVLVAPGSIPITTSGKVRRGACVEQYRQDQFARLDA

cells [17] = type: functional, cell-based
HeLa = assay: ATP-based viability loss in HeLa cells – cell-based, CellTiter-Glo luminescence, cherry-pick samples, cytotoxicity control for MITF activator project, dose response (AID 540259); type: functional; conditions: Homo sapiens
[18] = toxicity toward HEK293 cells – cell-based, dry powder samples, cytotoxicity control, dose response (AID 720567); type: functional
[19] = biological target: T2, Disintegrin and metalloproteinase domain-containing protein 17; assay: exosite inhibitors of ADAM17, dose response, biochemical (AID 743260)
[20] = inhibition of ADAM10 peptide cleavage – biochemical, FRET peptide substrate, recombinant human ADAM10, selectivity assay for ADAM17 exosite inhibitor project, dose response (AID 743259);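 note: ADAM10 enzyme cleaving a FRET peptide substrate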
[21] = blockers of bursicon-stimulated LGR2 cAMP reporter – cell-based, HEK293, CRE-luciferase reporter, cherry pick, set 2, dose response (AID 743343); type: functional;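 note: transfected cells were stimulated with diluted bursicon conditioned medium after compound addition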
[22] = toxicity toward HepG2 liver cells – cell-based, plate reader, cherry-pick, antagonist series, cytotoxicity control, dose response (AID 743416); type: functional
[23] = blockade of melanocortin 4 receptor signaling – cell-based, plate reader, cherry pick, counter-screen for LGR2 antagonist project, dose response (AID 743444); type: functional;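 note: transfected HEK 293 cells stimulated with alpha-MSH peptide; potency of inhibitors of the alpha-MSH evoked signal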
[24] = A549 cell cytotoxicity, dose response, cytotoxicity control, plate reader, cherry-pick, antagonist series (AID 743412); type: functional, cell-based
[25] = viability loss in HEK293 cells – cell-based, plate reader, cherry-picked samples, cytotoxicity control, dose response (AID 743446); type: functional
Paired box protein Pax-8 = Paired box protein Pax-8 (Homo sapiens, UniProt Q06710); assay: PAX8 transcriptional activity inhibition in RMG-I – RMG-I cells, luciferase, cherry-pick, dose response (AID 687027); type: functional, cell-based;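 note: luciferase reporter driven by Pax8 target thyroperoxidase promoter measured by SteadyGlo luminescence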
[26] = OVCAR-3 cell viability loss – plate reader, dry powder samples, PAX8 inhibitor project, dose response (AID 743044); type: functional, cell-based
[27] = OVCAR8 cell viability loss – plate reader, dry powder samples, PAX8 project, dose response (AID 743197); type: functional, cell-based; conditions: OVCAR-8
[28] = toxicity toward immortalized ovarian surface epithelium – cell-based, plate reader, dry powder samples, cytotoxicity control for PAX8 inhibitor project, dose response (AID 743045); type: functional

CC(C)(C)c1ccc(-c2cc(-c3ccccc3O)n[nH]2)cc1
EC50 [1]: 1.81 µM (active)
IC50 [2]: > 69.6 µM (inactive)
IC50 [3]: 47.8 µM (inactive)

Cc1onc(-c2c(F)cccc2Cl)c1C(=O)Nc1nnc(C(F)(F)F)s1
IC50 (Major prion protein): 2.79 µM (active)
IC50 (cells [4]): > 138 µM (inactive)

CN(C)c1cc(NC(=O)Nc2ccccc2)c2ccccc2n1
IC50 [5]: 69.5 µM (inactive)
IC50 (Mu-type opioid receptor): > 50 µM (inactive)
IC50 [6]: 32.6 µM (inactive)
IC50 [7]: 40 µM (inactive)

Cc1ccc(NC(=O)Nc2ccnc(-c3cccnc3)n2)cc1
EC50 [8]: 0.87 µM (active)
AC50 [9]: > 52 µM (inactive)
EC50 [10]: 0.983 µM (active)
EC50 [11]: > 120 µM (not active)
IC50 [12]: 27.8 µM (inactive)

CCc1cccc2c(C(=O)CN3C(=O)NC4(CCCCCC4)C3=O)c[nH]c12
EC50 [13]: > 91.2 µM (inactive)
EC50 [14]: > 91.2 µM (inactive)
IC50 [15]: > 67.6 µM (inactive)
AC50 [16]: 4.33 µM (active)
IC50 (cells [17]): > 67.6 µM (inactive)
AC50 (HeLa): 99.7 µM (active)

Cc1cccc(C)c1OCCNC(=O)C(=O)NCc1ccco1
AC50 [18]: > 30 µM (inactive)

C[C@H](CO)N1C[C@H](C)[C@H](CN(C)S(=O)(=O)c2cccs2)Oc2ccc(NC(=O)Nc3ccc4c(c3)OCO4)cc2CC1=O
IC50 [19]: > 69.5 µM (inactive)
IC50 [20]: 13.8 µM (inactive)

CCN1CCN(Cc2ccc(NC(=O)c3cccc(-c4ccc5nc(NC(=O)C6CC6)sc5n4)c3)cc2C(F)(F)F)CC1
AC50 [21]: 5.27 µM (active)
AC50 [22]: 3.22 µM (active)
AC50 [23]: 2.18 µM (active)
AC50 [24]: 5.08 µM (active)
AC50 [25]: 8.7 µM (active)

CN1c2ccc(-c3ccccc3)cc2[C@H]2[C@H](CCN2C(=O)NC2CCCCC2)[C@@H]1CO
AC50 (Paired box protein Pax-8): 11.5 µM (active)
AC50 [26]: 23.4 µM (active)
AC50 [27]: 25.3 µM (active)
AC50 [28]: 53.9 µM (active)
